Results on 7 compounds are retold here after ChEMBL document CHEMBL1201862, “PubChem BioAssay data set” (2004).

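A five-concentration, 48-hour dose response in 96-well plates underlies each endpoint, interpolated linearly between surrounding concentrations. GI50 is the concentration that inhibits growth by half.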 Activity calls are given as the source filed them. Cut-off read from the data, not from the text of the source: active = GI50 up to about 1.1 µM and inactive = higher.

Test systems include NCI/ADR-RES; LOX IMVI; RXF 393; MDA-MB-231; HL-60; UACC-257; UO-31; HOP-62; SW-620; CAKI-1; A549; MOLT-4; OVCAR-5; M14; UACC-62; NCI-H226; Malme-3M; DU-145; CCRF-CEM; KM12.
Common to all, as to assay: NCI tumour cell line growth inhibition, 48 h

Turning to `NS(=O)(=O)c1ccc(NC2(C(=O)O)CCCC2)cc1`, the GI50 in the assay on NCI/ADR-RES, in the assay on LOX IMVI, with RXF 393, in the assay with MDA-MB-231, in the assay with HL-60 and in the assay on UACC-257 was > 100 µM (inactive) each time. Besides, the GI50 in the assay on UO-31, in the assay with HOP-62, in the assay with SW-620, in the assay on CAKI-1, in the assay on A549 and in the assay on MOLT-4 was > 100 µM (inactive) each time. In addition, the GI50 in the assay with OVCAR-5, in the assay with M14, with UACC-62, in the assay on NCI-H226, in the assay with Malme-3M and with DU-145 was > 100 µM (inactive) in each case. In addition, the GI50 in the assay with CCRF-CEM and with KM12 was > 100 µM (inactive) each time.

With `O=C1Nc2c(Cl)cccc2/C1=N/Nc1ccccc1[N+](=O)[O-]`, the GI50 in the assay with NCI/ADR-RES was 11.5 µM (inactive); in the assay on LOX IMVI, 11.8 µM (inactive); with RXF 393, 31.9 µM (inactive); in the assay on MDA-MB-231, 4.97 µM (inactive); with HL-60 it was 70.1 µM (inactive); in the assay with UACC-257, 22.4 µM (inactive). For the same compound, the GI50 in the assay on UO-31 was 22.1 µM (inactive); in the assay with HOP-62 it was 9.27 µM (inactive); in the assay with SW-620 it was 32.7 µM (inactive); in the assay on CAKI-1, 11.7 µM (inactive); in the assay on A549, 21.8 µM (inactive); in the assay with MOLT-4, 31.3 µM (inactive). In addition, the GI50 in the assay with OVCAR-5 was 50.7 µM (inactive); in the assay with M14, 21.7 µM (inactive); with UACC-62, 17.5 µM (inactive); in the assay with NCI-H226, 36.1 µM (inactive); in the assay with Malme-3M it was 3.58 µM (inactive); with DU-145, 16.4 µM (inactive). In addition, the figures for the GI50 with CCRF-CEM and in the assay with KM12 were 46 µM (inactive) and 8.89 µM (inactive), respectively.

Take `C1=Cc2cccc3occ(c23)C=C1`: the GI50 is > 100 µM (inactive) in the assay with NCI/ADR-RES; 17.9 µM (inactive) in the assay with LOX IMVI; 25.8 µM (inactive) with RXF 393; > 100 µM (inactive) with MDA-MB-231; 20.4 µM (inactive) in the assay with HL-60; > 100 µM (inactive) in the assay on UACC-257. Moreover, the GI50 in the assay on UO-31 was 41.8 µM (inactive); with HOP-62 it was > 100 µM (inactive); in the assay with SW-620, 39.1 µM (inactive); in the assay with CAKI-1, > 100 µM (inactive); with A549 it was > 100 µM (inactive); with MOLT-4 it was 25.6 µM (inactive). Moreover, the GI50 in the assay with OVCAR-5 was > 100 µM (inactive); in the assay on M14 it was > 100 µM (inactive); in the assay on UACC-62 it was 39.3 µM (inactive); with NCI-H226, 24.1 µM (inactive); in the assay on Malme-3M, > 100 µM (inactive); in the assay on DU-145, > 100 µM (inactive). Besides, the GI50 with CCRF-CEM is 20.5 µM (inactive); in the assay with KM12 it was 43 µM (inactive).

`CC[C@@]1(O)C[C@H](OC2CC(N(C)C)C(O)C(C)O2)c2c(O)c3c(c(O)c2[C@H]1OC1CC(N(C)C)C(O)C(C)O1)C(=O)c1cccc(O)c1C3=O` (stereo not given in full): the GI50 in the assay with NCI/ADR-RES was 0.177 µM (active); in the assay on LOX IMVI, 0.0208 µM (active); in the assay with RXF 393 it was 0.0255 µM (active); in the assay with MDA-MB-231 it was 0.0341 µM (active); in the assay with HL-60, 0.0869 µM (active); in the assay with UACC-257, 0.146 µM (active). The GI50 is 0.0275 µM (active) in the assay with UO-31; 0.0404 µM (active) in the assay on HOP-62; 0.0378 µM (active) in the assay on SW-620; 0.0195 µM (active) with CAKI-1; 0.0306 µM (active) in the assay on A549; 0.0817 µM (active) with MOLT-4. Besides, the GI50 is 0.0838 µM (active) with OVCAR-5; 0.0357 µM (active) with M14; 0.0253 µM (active) in the assay on UACC-62; 0.0219 µM (active) in the assay with NCI-H226; 0.0424 µM (active) with Malme-3M; 0.182 µM (active) in the assay with DU-145. Also, the GI50 is 0.0687 µM (active) in the assay with CCRF-CEM and 0.028 µM (active) in the assay with KM12.

On to `CCN1CCC(O)(c2ccc([N+](=O)[O-])cc2)C(C(=O)c2ccc([N+](=O)[O-])cc2)C1` (stereo not given), for which the GI50 with NCI/ADR-RES is 53.8 µM (inactive); in the assay with LOX IMVI, 21.6 µM (inactive); in the assay with RXF 393 it was 14.4 µM (inactive); with MDA-MB-231, 25.8 µM (inactive); in the assay with HL-60, 41.5 µM (inactive); in the assay on UACC-257 it was 17.9 µM (inactive). The GI50 was 17.3 µM (inactive) in the assay on UO-31; 77.3 µM (inactive) with HOP-62; 25.1 µM (inactive) with SW-620; 22.3 µM (inactive) in the assay with CAKI-1; 69 µM (inactive) with A549; 19.3 µM (inactive) in the assay on MOLT-4. In addition, the GI50 was 52.6 µM (inactive) in the assay on OVCAR-5; 18.1 µM (inactive) in the assay on M14; 18.2 µM (inactive) with UACC-62; 26.3 µM (inactive) in the assay with NCI-H226; 20.1 µM (inactive) in the assay with Malme-3M; 17.7 µM (inactive) in the assay on DU-145. Further, the GI50 with CCRF-CEM is 11.9 µM (inactive); in the assay with KM12 it was 17 µM (inactive).

Take `C/C(=N\Nc1ccccc1)C(CN(C)C)C(c1ccccc1)c1c(O)c2ccccc2oc1=O` (stereo not given): the GI50 in the assay on NCI/ADR-RES is > 100 µM (inactive); in the assay on LOX IMVI, > 100 µM (inactive); with RXF 393, > 100 µM (inactive); in the assay with MDA-MB-231, > 100 µM (inactive); in the assay on HL-60, > 59.8 µM (inactive); in the assay with UACC-257, > 100 µM (inactive). The GI50 is > 100 µM (inactive) with UO-31; > 100 µM (inactive) with HOP-62; > 100 µM (inactive) with SW-620; > 100 µM (inactive) in the assay with CAKI-1; > 100 µM (inactive) with A549; 42.1 µM (inactive) in the assay on MOLT-4. The GI50 is > 100 µM (inactive) with OVCAR-5; > 100 µM (inactive) with M14; > 100 µM (inactive) in the assay on UACC-62; > 100 µM (inactive) in the assay on NCI-H226; > 83 µM (inactive) in the assay with Malme-3M; > 100 µM (inactive) in the assay on DU-145. For the same compound, the GI50 in the assay on CCRF-CEM is > 83.8 µM (inactive); in the assay with KM12 it was > 100 µM (inactive).

Turning to `COc1cc2cc(C(=O)N3CC(CCl)c4c3cc(NC(=O)OCc3ccc([N+](=O)[O-])cc3)c3ccccc43)[nH]c2c(OC)c1OC` (stereo not given), the GI50 with NCI/ADR-RES was 3.67 µM (inactive); in the assay on LOX IMVI it was 38.7 µM (inactive); in the assay with RXF 393, 14 µM (inactive); in the assay on MDA-MB-231 it was 44.9 µM (inactive); with HL-60, 0.11 µM (active); with UACC-257 it was > 71.3 µM (inactive). Besides, the GI50 in the assay with UO-31 is 0.125 µM (active); in the assay with HOP-62 it was 16.3 µM (inactive); with SW-620, 28.2 µM (inactive); in the assay with CAKI-1, 0.153 µM (active); with A549, 8.65 µM (inactive); in the assay on MOLT-4, 9.73 µM (inactive). Besides, the GI50 is 29.4 µM (inactive) in the assay on OVCAR-5; 29 µM (inactive) in the assay on M14; > 38 µM (inactive) with UACC-62; > 100 µM (inactive) in the assay on NCI-H226; > 100 µM (inactive) in the assay on Malme-3M; 0.108 µM (active) in the assay with DU-145. Also, the GI50 in the assay with CCRF-CEM was 8.91 µM (inactive); with KM12, > 42.5 µM (inactive).
